The inhibition is the relative decrease from the control value, in per cent. In general, IC50 refers to the point on the concentration scale where inhibition reaches its midpoint.

The test system of experiment [1] is isolated hepatocytes. As to the kind of experiment: Formation of lipid peroxide in isolated hepatocytes after addition of carbon tetrachloride. It counts as cell-based, rat. To be noted: Concentration 10 µM, carbon tetrachloride 5 mM; for inhibition at 10 µM: Rattus norvegicus, Hepatocyte, 3 hours, read-out: Free MDA (3 hours) % Inhibition. Here is the method:
Lipid peroxide was produced in vitro in cell membranes by using hepatocytes isolated by means of collagenase.
The isolated hepatocytes were prepared by the method of collagenase perfusion from the liver of rat which was fed for one week with phenobarbital in drinking water. The isolated hepatocytes (1 x 10^6 cells/ml Hanks solution containing 1 % BSA and 10 mM HEPES, pH 7.4) were taken into a conical flask in which test compounds were placed. Then, the cells were incubated at 37°C and produced the lipid peroxide by the addition of carbon tetrachloride (5 mM).
The activity of the compounds shown in Table I and vitamin E to inhbit the formation of the lipid peroxide was measured. The amount of the lipid peroxide was determined in accordance with the method of Mihara et al. (Yakugaku Zasshi; Journal of the Pharmaceutical Society of Japan, Vol. 102, No. 7, 670-677 (1982)) and expressed in terms of inhibition rate (%) of the formation of lipid peroxide after the addition of carbon tetrachloride.

The test system of experiment [2] is rat polymorphonuclear leukocytes (PMN). As to the kind of experiment: Production of O2- by polymorphonuclear leukocytes stimulated with PMA (cytochrome C reduction). The format is cell-based. The settings on record: Leukocyte, PMA 125 ng/ml; for inhibition at 3.3 µM: Conc. 3.3 µM; for inhibition at 10 µM: Conc. 10.0 µM; for inhibition at 33 µM: Conc. 33.0 µM. Here is the method:
In 20 hours after injection of 10 ml of 1 % casein into the abdominal cavity of a […], many polymorphonuclear leukocytes appear in the cavity. An activity of the polymorphonuclear leukocytes can be determined in an in vitro system. Briefly stated, addition of phorbol myristate acetate, PMA, as a stimulant into a test tube containing a buffer and the polymorphonuclear leukocytes induces the production of O2^- by the polymorphonuclear leukocytes. […] See Wei Hsueh et al., Nature, 290 (23), 710-713 (1981).
Thus, measurements were carried out using rat polymorphonuclear leukocytes (PMN) induced by 1 % casein and PMA (phorbol-12-myristate-13-acetate) as a stimulant. First, 1,830 µl of phosphate buffer, pH 7,4, 50 µl of cytochrome C (Cyt C) in BSA, 20 µl of a sample (compound) and 50 µl of PMN were stirred at 37°C. After adding 50 µl of PMA to a final concentration of 125 ng/ml, the change of Cyt C reduction was traced by an absorption at 550 nm. The number of PMN per tube was 2 x 10^6 cells.

The test system of experiment [3] is Mast cells. The experiment in a line: Histamine release from mast cells stimulated with compound 48/80 or ascarid protein. The format is cell-based, male Wistar rats. The settings on record: compound 48/80 and protein from epidermis of ascarid as stimulants. Here is the method: Histamine release can be experimentally investigated in vitro with use of mast cells derived from rat's abdominal cavity. Thus, after the mast cells are pre-incubated in the presence of an IgE antibody, e.g. IgE antibody prepared by sensitization of rabbit with a protein derived from the epidermis of ascarid, addition of a corresponding IgE antigen, e.g. the protein prepared from the epidermis of ascarid, induces the release of histamine from the mast cells. Such release of histamine can also be induced by addition of an artificial stimulant compound 48/80, ATP (adenosine triphosphate) to mast cells.
Mast cells were collected from the abdominal cavity of male Wistar rats of 400 - 450 g in body weight in a conventional manner. After pre-incubation of 5 x 10^4 cells in Krebs-Ringer buffer, pH 7.4, for 10 minutes, 0,1 µg/ml of the compound 48/80 was added. After incubation for an additional 10 minutes, the cells were removed by centrifugation at 3,000 rpm for 5 minutes. Thereafter, histamine in the supernatant was quantitatively measured according to Shore's method described in J. Phar. […] As a control, total amount of histamine contained in mast cell was measured. A ratio of the amount of histamine released after the treatment with the compound 48/80 as a stimulant to the total amount of histamine as the control was calculated according to the following equation : [formula]

The subject of experiment [4] is rat liver microsome. As to the kind of experiment: Formation of lipid peroxide in vitro in rat liver microsome (TBA method). It counts as biochemical. Here is the method:
Lipid peroxide was produced in vitro by using rat liver microsome. The microsome was prepared in a usual method from rat starved for 24 hours, and the final concentration thereof was adjusted to 15 - 18 mg proteins/ml.
To the thus prepared microsome was added Fe(N03)3, ADP (adenosine diphosphate), NADPH (nicotinamide adenine dinucleotide phosphate), glucose 6-phosphate and glucose 6-phosphate dehydrogenase so that the final concentrations of these additives were 200 uM, 7 mM, 7.5 mM, 20 mM and 2.0 U.I., respectively.
The resultant mixture was incubated at 37°C to produce the lipid peroxide. The activity of compound No. 1 and vitamin E to inhibit the formation of the lipid peroxide was measured. The quantity of the lipid peroxide was determined in accordance with TBA method (thiobarbiturate method, "Biochemical Medicine", Vol. 15, p. 212 (1976)) and expressed in terms of MDA (malon dialdehyde) amount (nmol) in 1 mg of protein.
On the technique in general: Liver microsomes are vesicles of endoplasmic reticulum, rich in cytochrome P450 enzymes.

Experiment [5] concerns liver of the carbon tetrachloride-treated rat. The experiment in a line: Lipid peroxide in the liver of carbon tetrachloride-treated rat, oral administration. The settings on record: 24 hours after CCl4. The format is in vivo. Here is the method: The lipid peroxide in the liver of the rat treated with CC14 increases. Carbon tetrachloride of 25 % V/V in olive oil was administered orally to rats by the dose of 2 ml/kg. After 24 hours, the amount of the lipid peroxide in the liver of the carbon tetrachloride-treated rat was increased to approx. 6 times higher than untreated rat. The amount of the lipid peroxide was determined by the method of Mihara et al. as in Example 3 and was expressed in terms of MDA amount (nmol) in 1 g of liver. The activity of compound No. 1 and vitamin E to inhibit the formation of the lipid peroxide was measured. Compound No. 1 was orally administered to the carbon tetrachloride-treated rat in the form of suspension in the surfactant "Tween 80" by the amount of 25, 50 or 100 mg/kg/day nine days before the treatment of carbon tetrachloride.

Where [6] appears, read: 10 µM, Incubation Period 10 min.
The mark [7] stands for this setting: 100 µM, Incubation Period 5 min.
The mark [8] stands for this setting: 100 µM, Incubation Period 10 min.

For the compound `COc1ccc2c(c1OC)C(=O)OC2C1c2c(cc3c(c2OC)OCO3)CCN1C` (stereo not drawn) [compound 2], the inhibition at 10 µM in experiment [1] came out at 42.4%.
Turning to `CCOc1c(N)c2c(c(OCC)c1OCC)C(C1c3c(cc(OC)c4c3OCO4)CCN1C)OC2=O` (stereo not drawn) [compound 3], the inhibition at 10 µM in experiment [1] stood at 76.9%. In addition, in experiment [2], the inhibition at 3.3 µM came out at 34.9%, the inhibition at 10 µM was determined as 59.9%, the inhibition at 33 µM stood at 66.2% and the IC50 is 7.2 µM. In experiment [3], the “inhibiting activity to the histamine release” value was “strong inhibiting activity”.
With Vitamin E [reference compound], the “MDA Amount Produced” value in experiment [4] (setting [6]) is 2.37 ± 0.21 nmol/mg of protein; in experiment [4] (setting [7]), 2.06 ± 0.001 nmol/mg of protein; in experiment [4] (setting [8]), 2.62 ± 0.07 nmol/mg of protein; in experiment [4] (1000 µM, Incubation Period 5 min), 2.06 ± 0.016 nmol/mg of protein; in experiment [4] (1000 µM, Incubation Period 10 min), 2.29 ± 0.14 nmol/mg of protein; in experiment [5] (50 mg/kg oral), 104.0 ± 18.4 nmol/g of liver. In addition, in experiment [1], the “Free MDA (3 hours) % Inhibition” value turned out to be 13%.
Consider `CCOc1c(N)c2c(c(OCC)c1OCC)C(C1c3cc(OC)c(OC)cc3CCN1C)OC2=O` (stereo not drawn) [compound 6], for which the inhibition at 10 µM in experiment [1] was 47.6%. In experiment [2], the inhibition at 3.3 µM turned out to be 0.9%, the inhibition at 10 µM worked out at 14%, the inhibition at 33 µM is 41.1% and it took 45.1 µM to reach half-maximal inhibition (IC50).
For `CCOc1c(OCC)c2c(c([N+](=O)[O-])c1OCC)C(=O)OC2C1c2c(cc3c(c2OC)OCO3)CCN1C` (stereo not drawn) [compound 4], in experiment [1], the inhibition at 10 µM was 28.6%.
As to `CCOc1c(N)c2c(c(OCC)c1OCC)C(C1c3c(cc4c(c3OC)OCO4)CCN1C)OC2=O` (stereo not drawn) [Compound No. 1, 7-amino-4,5,6-triethoxy-3-(5,6,7,8-tetrahydro-4-methoxy-6-methyl-1,3-dioxolo(4,5-g)isoquinolin-5-yl)phthalide], the “MDA Amount Produced” value in experiment [4] (3.3 µM, Incubation Period 5 min) is recorded as 1.80 ± 0.12 nmol/mg of protein; in experiment [4] (3.3 µM, Incubation Period 10 min), 2.25 ± 0.21 nmol/mg of protein; in experiment [4] (10 µM, Incubation Period 5 min), 1.71 ± 0.12 nmol/mg of protein; in experiment [4] (setting [6]) it was 1.80 ± 0.06 nmol/mg of protein; in experiment [4] (33 µM, Incubation Period 5 min) it was 1.50 ± 0.05 nmol/mg of protein; in experiment [4] (33 µM, Incubation Period 10 min), 1.62 ± 0.02 nmol/mg of protein. For the same compound, the “MDA Amount Produced” value in experiment [4] (setting [7]) is recorded as 1.37 ± 0.02 nmol/mg of protein; in experiment [4] (setting [8]) it was 1.37 ± 0.05 nmol/mg of protein; in experiment [5] (25 mg/kg oral), 333.0 ± 54.3 nmol/g of liver; in experiment [5] (50 mg/kg oral) it was 328.5 ± 50.8 nmol/g of liver; in experiment [5] (100 mg/kg oral) it was 171.0 ± 23.6 nmol/g of liver. For the same compound, the inhibition at 10 µM in experiment [1] was 77.3%; in experiment [2], 53.9%. Moreover, the inhibition at 3.3 µM in experiment [2] is 15.4%. In experiment [2], the inhibition at 33 µM was 58.8%. In experiment [2], this compound came in with a 50% inhibitory concentration (IC50) of 15.9 µM. The “inhibiting activity to the histamine release” value in experiment [3] is reported as “strong inhibiting activity”.
For the compound `CCOc1c(N)c2c(c(OCC)c1OCC)C(C1c3c(cc4c(c3OC)OCO4)CCN1CC)OC2=O` (stereo not drawn) [compound 5, 2-ethyl-6,7-methylenedioxy-8-methoxy-1-(4,5,6-triethxy-7-amino-3-phthalidyl)-1,2,3,4-tetrahydroisoquinoline], the inhibition at 10 µM in experiment [1] stood at 68.6%. Besides, in experiment [2], 3.3 µM produced 49.2% inhibition, the inhibition at 10 µM turned out to be 65.8%, the inhibition at 33 µM stood at 60.3% and the concentration for half-maximal inhibition (IC50) was determined as 1.8 µM.

Values taken from patent EP0201359A2, “Use of phthalide isoquinoline derivatives for treatments inhibiting the formation of lipid peroxides” (MITSUBISHI KASEI CORPORATION, priority 1985, dated 1986).
